{"source": "paper PMC12977544", "about": "“Phenotypic high-throughput screening identifies modulators of gut microbial choline metabolism” (mBio, 2026)", "key": {"[1]": {"system": "E. coli MS 200-1", "assay": "Growth inhibition of E. coli cultures in choline- and glycerol-containing minimal media", "type": "cell-based, Escherichia coli MS 200-1", "conditions": "for Effect on growth of E. coli MS 200-1 in glycerol medium: glycerol NCE minimal medium", "experimental": "To validate the potential hits from the HTS, we tested the 178 compounds for inhibition of growth of E. coli MS 200-1 in glycerol minimal media at 30 µg/mL, following up with those without activity. […]. We then determined EC50 values for inhibition of TMA production from choline by bacterial cultures incubated with [trimethyl-d9]choline in phosphate-buffered saline. Of the 178 compounds tested in both growth and TMA inhibition assays, 20 inhibited TMA generation by E. coli MS 200-1 without growth-inhibitory effects in glycerol minimal medium.\nNCE media was adapted based on the “no carbon E” media as previously described ([14]), and contains 29 mM potassium phosphate monobasic, 29 mM potassium phosphate dibasic, 17 mM ammonium sodium phosphate dibasic, 40 mM sodium fumarate dibasic, 0.1% (wt/vol) casamino acids, and either 20 mM choline chloride or 3 g/L glycerol. This mixture was supplemented with 1 mM magnesium sulfate, 1% ATCC vitamin supplement, and 1% ATCC trace mineral supplement."}, "[2]": {"system": "choline-metabolizing gut bacteria (E. coli, P. mirabilis, C. sporogenes, A. hydrogenalis)", "assay": "TMA inhibition across the panel of four choline-metabolizing gut bacteria", "type": "cell-based", "conditions": "for EC50: read-out: EC50 values for TMA inhibition across the choline-metabolizing bacteria", "description": "We then used secondary assays to prioritize scaffolds that had broad-spectrum TMA inhibitory activity against additional choline-metabolizing gut bacteria. For this, we used Clostridium sporogenes ATCC 15579, a human gut isolate that is able to efficiently ferment choline in addition to other carbon sources, as well as Anaerococcus hydrogenalis DSM 7454 and Proteus mirabilis ATCC 29906, human gut isolates previously identified to metabolize choline in vitro ([61]). In particular, E. coli MS 200-1 and C. sporogenes ATCC 15579 have been used in gnotobiotic studies to investigate the effects of bacterial choline metabolism on the host and microbiome ([46], [61], [62]). These strains are representative of taxa frequently detected in humans ([63]) and, together with E. coli, are representative of the major phyla and genera in which TMA producers have been detected across human gut isolates ([48]). Importantly, this group of strains included both gram-positive and gram-negative bacteria. Gram-negative bacteria have an additional outer membrane layer and associated efflux pumps ([29]), which typically decreases small molecule permeability compared to gram-positive bacteria. It also included bacteria with cut gene cluster architectures that differ in the number and types of microcompartment proteins encoded and in the size of the CutC enzyme ([48]). We hypothesized that testing the inhibitors against multiple choline-utilizing gut bacteria would increase the likelihood of identifying compounds with broad-spectrum activity.\nCompounds were stored as 10 mM DMSO stocks at –20°C and diluted in DMSO to prepare varying concentrations of inhibitors for testing. Bacteria were grown anaerobically overnight in media supplemented with choline as described above. Cells were pelleted and resuspended in PBS, and d9-choline chloride was added to a final concentration of 1 mM. The final OD600 of the PBS cell resuspensions is as follows: 0.4 (E. coli), 0.15–0.2 (P. mirabilis), 0.2 (C. sporogenes), and 0.4 (A. hydrogenalis). The resuspended cells were added to 96-well plates containing inhibitors (final concentration of 1% DMSO, with final inhibitor concentrations ranging between 0 and 325 µM). The plates were sealed and incubated for 75 min (or 90 min for P. mirabilis) at 37°C. Following incubation, the plates were removed from the anaerobic chamber and analyzed immediately or kept at –20°C until LC–MS/MS analysis. Each inhibitor concentration was tested in triplicate. EC50 values were calculated with GraphPad Prism by fitting the log(inhibitor) vs response—Variable slope (four-parameter) model for non-linear regression."}, "[3]": {"molecular_target": "T1, purified CutC (choline trimethylamine-lyase) (Oleidesulfovibrio alaskensis, UniProt Q30W70)", "T1 construct": "made in house", "T1 sequence (Q30W70 53-846)": "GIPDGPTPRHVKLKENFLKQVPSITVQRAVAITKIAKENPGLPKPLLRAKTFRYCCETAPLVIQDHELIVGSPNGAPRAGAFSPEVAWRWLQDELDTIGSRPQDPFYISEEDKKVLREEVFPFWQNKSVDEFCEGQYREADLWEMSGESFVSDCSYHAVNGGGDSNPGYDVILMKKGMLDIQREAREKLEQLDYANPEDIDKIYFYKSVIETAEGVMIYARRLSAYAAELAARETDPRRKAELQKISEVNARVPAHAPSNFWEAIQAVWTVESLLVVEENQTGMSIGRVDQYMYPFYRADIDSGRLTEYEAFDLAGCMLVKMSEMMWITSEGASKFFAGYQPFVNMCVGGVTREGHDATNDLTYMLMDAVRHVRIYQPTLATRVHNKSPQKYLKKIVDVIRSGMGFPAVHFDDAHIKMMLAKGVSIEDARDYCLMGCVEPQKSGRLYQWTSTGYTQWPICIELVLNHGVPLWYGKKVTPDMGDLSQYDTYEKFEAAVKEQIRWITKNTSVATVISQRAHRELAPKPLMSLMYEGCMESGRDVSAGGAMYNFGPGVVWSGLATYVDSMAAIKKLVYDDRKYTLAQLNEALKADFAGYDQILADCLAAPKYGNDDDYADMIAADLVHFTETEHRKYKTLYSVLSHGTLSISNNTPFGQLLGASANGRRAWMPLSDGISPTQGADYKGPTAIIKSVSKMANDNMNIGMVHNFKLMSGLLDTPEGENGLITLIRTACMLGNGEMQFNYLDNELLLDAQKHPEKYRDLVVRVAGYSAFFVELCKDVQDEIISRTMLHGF", "assay": "In vitro CutC activity assay coupled to YADH/NADH (absorbance 340 nm)", "type": "biochemical, Desulfovibrio desulfuricans G20", "conditions": "5 nM CutC, 200 µM choline, 20°C, anaerobic", "experimental": "To investigate if our compounds were inhibiting CutC directly, we tested their activity toward the purified enzyme. The activity of CutC was determined using a coupled enzyme assay, where the acetaldehyde product from the cleavage of choline to TMA is reduced to ethanol by yeast alcohol dehydrogenase (YADH) using nicotinamide adenine dinucleotide (NADH) as a cofactor. The consumption of NADH results in a change in absorption at 340 nm, and this rate of change of absorption was used to calculate the initial rates of reaction of CutC in the presence of varying concentrations of inhibitors ([14], [65]).\nCutC and CutD enzymes from Desulfovibrio desulfuricans G20 were purified, CutC was activated by incubation with CutD, and the amount of glycyl radical installation was quantified as previously described ([15]). The IC50 of compounds was determined in an in vitro CutC activity assay, where CutC activity is coupled to the NADH-dependent enzymatic reduction of acetaldehyde by YADH ([15]). Briefly, assays were conducted in an anaerobic chamber (MBraun) under N2 atmosphere at 20°C. In 50 mM potassium phosphate buffer (pH 8.0, 50 mM KCl), 40 µM of CutD and 150 µM of sodium dithionite were incubated for 20 min before the addition of 200 µM of SAM and 20 µM of CutC monomer. The mixture was incubated for 1 h to activate the glycyl radical enzyme, after which the activated CutC mixture was diluted […] in 50 mM potassium phosphate buffer (pH 8.0, 50 mM KCl). A master mix containing 200 µM NADH, 0.4 µM YADH (Sigma), and the diluted CutC mixture (5 nM final concentration in assay) was prepared and aliquoted into 96-well plates (180 µL per well). Ten microliters of inhibitor or DMSO vehicle was added, followed by 10 µL of aqueous choline chloride solution (final concentration 200 µM). Absorbance was measured at 340 nm immediately after addition of all assay components, with measurements taken every 20 s for 10 min. Initial rates were calculated from absorbance measurements and fitted to Michaelis–Menten equation using nonlinear regression in GraphPad Prism 10 (v. 10.4.0). Background activity was subtracted using no substrate controls, and initial rates for each inhibitor concentration were normalized to no inhibitor controls. IC50 values were obtained by plotting normalized activity values against the logarithm of inhibitor concentration and fitting to a nonlinear regression model in GraphPad Prism 10 (v. 10.4.0)."}, "[4]": {"system": "E. coli MS 200-1", "assay": "MIC in MEGA medium", "type": "cell-based, Escherichia coli MS 200-1", "conditions": "Escherichia coli, MS2001; anaerobic, 37°C, 24 h, up to 200 µM", "experimental": "For TMA inhibition assays, E. coli and P. mirabilis were grown in NCE medium supplemented with 20 mM choline chloride, A. hydrogenalis was grown in MEGA medium supplemented with 3 mM choline chloride, and C. sporogenes was grown in BHI medium supplemented with 20 mM of choline chloride to induce expression of the cut gene cluster. For MIC assays, all bacteria strains were grown in MEGA medium."}}}
{"molecule": "Cc1ccc(-c2cc(C(=O)NCCCN3CCc4ccccc4C3)c(C)[nH]2)cc1C", "note": "[Compound 5]", "values": [{"measurement": "Effect on growth of E. coli MS 200-1 in glycerol medium", "setting": "[1]", "result": "no impact on growth"}, {"measurement": "EC50", "setting": "[2]", "result": "12 to 33", "unit": "µM"}]}
{"molecule": "Cc1ccc(-c2cc(C(=O)NCCCCCN3CCCCCC3)c(C)[nH]2)cc1C", "note": "[Compound 45]", "values": [{"measurement": "IC50", "setting": "[3]", "result": 17, "unit": "µM"}, {"measurement": "MIC", "setting": "[4]", "result": "> 200", "unit": "µM"}, {"measurement": "Fold more potent than 6 across the panel of bacteria", "setting": "[2]; compared with compound 6", "result": "2–10 fold"}, {"measurement": "Reduction of conversion of choline to TMA by bacteria in vitro", "setting": "[2]; in vitro", "result": "> 80", "unit": "%"}, {"measurement": "EC50", "setting": "[2]", "result": "2 to 18", "unit": "µM"}]}
{"molecule": "Cc1ccc(-c2cc(C(=O)NCCCN3CCC(C)CC3)c(C)[nH]2)cc1C", "note": "[Compound 6]", "values": [{"measurement": "IC50", "setting": "[3]", "result": 48, "unit": "µM"}, {"measurement": "Inhibition of E. coli growth on choline", "setting": "[1]; choline minimal medium, 7 h, 6: 125–500 µM, 42: 30–100 µM", "result": "dose-dependent"}, {"measurement": "Effect on growth of E. coli MS 200-1 in glycerol medium", "setting": "[1]", "result": "not observed in glycerol"}, {"measurement": "MIC", "setting": "[4]", "result": "> 200", "unit": "µM"}]}
